Source: article PMC10144134, “Characterization of Potent ABCG2 Inhibitor Derived from Chromone: From the Mechanism of Inhibition to Human Extracellular Vesicles for Drug Delivery” (Pharmaceutics, 2023)
“Also recorded” adds a separate entry of the source.

Key:
[1] = set-up: method as in PMID 17317193; settings: cited from earlier work
[2] = system: implanted ABCG2-positive tumors; settings: cited from earlier work
ABCG2 [3] = target: T1, ABCG2 (Homo sapiens, UniProt Q9UNQ0); set-up: expressed in transfected cells; host or cells: HEK293 (stably transfected, G418 selection; gift of Dr. Attilio Di Pietro); settings: read-out: IC50 of ABCG2 inhibition; cited from earlier work
T1 sequence (Q9UNQ0 1-655): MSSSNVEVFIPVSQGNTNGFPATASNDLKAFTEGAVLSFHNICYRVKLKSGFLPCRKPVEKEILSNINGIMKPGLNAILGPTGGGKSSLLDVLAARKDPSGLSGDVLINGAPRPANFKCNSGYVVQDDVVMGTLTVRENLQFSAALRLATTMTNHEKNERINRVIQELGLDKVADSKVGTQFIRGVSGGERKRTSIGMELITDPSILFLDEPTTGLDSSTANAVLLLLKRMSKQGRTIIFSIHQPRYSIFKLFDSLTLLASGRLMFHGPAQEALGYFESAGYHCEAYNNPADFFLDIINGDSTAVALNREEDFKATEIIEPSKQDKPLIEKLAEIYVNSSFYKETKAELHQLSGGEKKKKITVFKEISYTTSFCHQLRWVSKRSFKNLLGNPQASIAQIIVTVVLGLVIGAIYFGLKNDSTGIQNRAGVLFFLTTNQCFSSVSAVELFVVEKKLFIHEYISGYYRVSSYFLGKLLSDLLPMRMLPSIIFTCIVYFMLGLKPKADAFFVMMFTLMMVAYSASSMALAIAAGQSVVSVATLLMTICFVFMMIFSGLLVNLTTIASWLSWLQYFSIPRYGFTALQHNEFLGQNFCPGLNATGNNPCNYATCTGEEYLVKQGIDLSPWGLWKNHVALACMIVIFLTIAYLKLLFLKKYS

P-gp [4] = target: T2, P-gp (Homo sapiens, UniProt P08183); test: Cell-based transport assay by flow cytometry, NIH3T3-ABCB1; settings: 10 µM, rhodamine 123 10 µM
T2 sequence (P08183 whole entry): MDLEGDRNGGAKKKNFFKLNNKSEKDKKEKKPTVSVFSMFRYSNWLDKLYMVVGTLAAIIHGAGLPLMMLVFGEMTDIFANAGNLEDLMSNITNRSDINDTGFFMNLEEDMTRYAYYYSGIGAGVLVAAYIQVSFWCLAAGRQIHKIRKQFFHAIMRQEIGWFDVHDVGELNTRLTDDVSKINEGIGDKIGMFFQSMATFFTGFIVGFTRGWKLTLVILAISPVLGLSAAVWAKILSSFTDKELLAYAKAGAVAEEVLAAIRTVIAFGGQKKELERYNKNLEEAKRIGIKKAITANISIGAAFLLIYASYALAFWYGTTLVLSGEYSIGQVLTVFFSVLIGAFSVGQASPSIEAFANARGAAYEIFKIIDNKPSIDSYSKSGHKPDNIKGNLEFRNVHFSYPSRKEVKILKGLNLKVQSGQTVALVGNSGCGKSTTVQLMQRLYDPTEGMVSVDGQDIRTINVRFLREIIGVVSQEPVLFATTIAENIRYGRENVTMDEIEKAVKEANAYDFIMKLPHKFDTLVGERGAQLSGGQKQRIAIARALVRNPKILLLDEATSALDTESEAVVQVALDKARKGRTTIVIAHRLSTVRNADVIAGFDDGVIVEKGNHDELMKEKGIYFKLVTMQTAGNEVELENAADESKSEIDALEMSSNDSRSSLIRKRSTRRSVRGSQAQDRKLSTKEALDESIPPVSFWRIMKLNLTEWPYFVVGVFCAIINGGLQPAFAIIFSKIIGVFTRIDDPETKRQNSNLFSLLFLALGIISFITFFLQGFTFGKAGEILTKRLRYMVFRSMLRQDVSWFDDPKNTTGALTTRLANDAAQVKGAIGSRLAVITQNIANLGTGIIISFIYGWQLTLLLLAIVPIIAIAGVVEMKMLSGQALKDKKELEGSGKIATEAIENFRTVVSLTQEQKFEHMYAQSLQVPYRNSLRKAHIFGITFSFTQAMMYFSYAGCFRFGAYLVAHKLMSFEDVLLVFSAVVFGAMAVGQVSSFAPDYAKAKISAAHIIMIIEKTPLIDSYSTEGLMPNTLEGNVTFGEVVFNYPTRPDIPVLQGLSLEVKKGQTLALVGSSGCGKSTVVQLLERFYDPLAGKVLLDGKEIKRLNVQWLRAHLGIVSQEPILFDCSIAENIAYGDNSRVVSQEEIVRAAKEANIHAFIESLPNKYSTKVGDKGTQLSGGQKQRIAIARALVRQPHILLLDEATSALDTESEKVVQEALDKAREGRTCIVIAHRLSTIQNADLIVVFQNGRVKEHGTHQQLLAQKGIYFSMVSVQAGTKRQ
Description: (§1) Cell lines (HEK293-ABCG, NIH3T3-ABCB1 and BHK21-ABCC1) were kept at 37 °C in the presence of 5% CO2 in DMEM high glucose (Gibco, Sao Paulo, Brazil) supplemented with 10% Fetal Bovine Serum (Gibco, Sao Paulo, Brazil) and 1% antibiotic (penicillin/streptomycin–Hyclone Laboratories, Logan, UT, USA). The stably transfected cells were kept with specific selection agent for each ABC transporter: ABCG2–G418 0.75 mg/mL, P-gp–Colchicine 60 ng/mL, MRP1–Methotrexate 0.1 mg/mL. The cells HEK293-ABCG2, NIH3T3-ABCB1 and BHK21-ABCC1, overexpressing ABCG2, P-gp and MRP1, respectively, were kindly provided by Dr. Attilio Di Pietro (IBCP, Lyon, France).
Cells were seeded into 24-well plates at a density of 1 × 10^5 cells/well and incubated for 48 h at 37 °C and 5% of CO2. […] The intracellular fluorescence was recorded by flow cytometry (FACS Calibur–Becton Dickinson, San Diego, CA, USA). […] The inhibition percent was calculated as follows: % of inhibition = ((C − S))/((I − S)) × 100, where “C” represents the treatment with substrate + compound in test, “S” represents the treatment with substrate alone and “I” represents the treatment with substrate + reference inhibitor.
This study was approved by the Ethics Committee of SCS/UFPR (CAAE 51428521.2.0000.0102). […] The protein concentration was quantified by Bradford assay. […]

MRP1 = system: T3, MRP1; test: Cell-based transport assay by flow cytometry, BHK21-ABCC1; set-up: species or system human; settings: 10 µM, calcein-AM 0.2 µM
T3 construct: expressed in transfected cells; host or cells: BHK21 (stably transfected, methotrexate selection; gift of Dr. Attilio Di Pietro)
Description: as §1
Cells were seeded into 24-well plates at a density of 1 × 10^5 cells/well and incubated for 48 h at 37 °C and 5% of CO2. When the confluence reached 90–95%, the medium was removed and the cells were exposed to inhibitors and substrates for 30 min at 37 °C. […] The intracellular fluorescence was recorded by flow cytometry (FACS Calibur–Becton Dickinson, San Diego, CA, USA). […] The inhibition percent was calculated as follows: % of inhibition = ((C − S))/((I − S)) × 100, where “C” represents the treatment with substrate + compound in test, “S” represents the treatment with substrate alone and “I” represents the treatment with substrate + reference inhibitor.

HEK293-ABCG2 cells = test: MTT chemosensitization assay, HEK293-ABCG2; type: cell-based, human
Description: (§2) HEK293 WT (wild type) and HEK293-ABCG2 cells were seeded (2.5 × 10^4 cell/well) into a 96-well plate and incubated for 24 h. Cells were concomitantly treated with EVs […]C4a (0.1, 1 and 10 μM) and SN-38 (10 nM) for 72 h. After this period, the medium was removed, cells were washed with PBS (100 μL) and incubated with MTT solution (100 μL of solution 0.5 mg/mL in PBS) for 4 h. Then, the solution was removed, and the formazan crystals were dissolved with 100 μL of ethanol/DMSO (1:1). The absorbance was measured using a microplate reader at 595 nm (Bio-Rad iMark, Hercules, CA, USA).

Water solubility = type: physicochemical; settings: aqueous
ABCG2 versus P-gp = target: T4, ABCG2 versus P-gp (Homo sapiens, UniProt Q9UNQ0); test: in vitro; settings: high-five membrane vesicles, pH 6.8
T4 sequence (Q9UNQ0 1-655): T1 sequence (Q9UNQ0 1-655)
Description: (§4) The absorbance was measured after 10 min incubation at room temperature using the spectrophotometer Ultrospec 3100 pro (Amersham Biosciences, Amersham, UK) at 880 nm wavelength.

P-gp [5] = target: T2, P-gp; test: ATPase activity, High-Five P-gp total membrane vesicles
Description: as §4

ABCG2 [6] = target: T1, ABCG2; test: ATPase activity, High-Five ABCG2 total membrane vesicles
Description: as §4

P-gp [7] = target: T2, P-gp; test: Thermostabilization assay on ATPase activity of P-gp; type: biochemical; set-up: made in house; host or cells: High-Five insect cells (total membrane vesicles); settings: C4a 10 μM
Description: (§3) The thermal stability assay was performed according to previous reports. […] To evaluate the effect of C4a over thermal stability, each sample was prepared with 12.5 mM MgCl2 or 6.25 mM ATP and incubated at a temperature ranging from 37 to 71 °C for 10 min using a thermocycler C1000 Touch (Bio-Rad, Hercules, CA, USA). After incubation, 10 µL of 25 mM ATP or 50 mM MgCl2 (5 and 10 mM final concentration, respectively) was added and incubated at 37 °C/20 min to allow ATP hydrolysis. The reaction was stopped with the addition of 50 µL of Pi reagent containing 1% ammonium molybdate, 2.5 N H2SO4 and 0.014% potassium-antimony tartrate. To evaluate the absorbance, the samples were transferred to a 96-well plate (50 µL/well), then 150 µL of 0.33% sodium ascorbate solution was added. The absorbance was measured after 10 min incubation at room temperature using the microplate reader Spectramax iD3 (Molecular Devices, San Jose, CA, USA). The sensitive activity to vanadate (Vi) was calculated as the difference between the activity in the absence of Vi minus the activity in the presence of Vi at each temperature.

ABCG2 [8] = target: T1, ABCG2; test: Thermostabilization assay on ATPase activity of ABCG2; type: biochemical; set-up: expressed in transfected cells; host or cells: HEK293 (stably transfected, G418 selection; gift of Dr. Attilio Di Pietro); settings: C4a 10 μM
Description: as §3

ABCG2 [9] = target: T1, ABCG2; test: Cell-based transport assay by flow cytometry, HEK293-ABCG2; set-up: expressed in transfected cells; host or cells: HEK293 (stably transfected, G418 selection; gift of Dr. Attilio Di Pietro)
Description: as §1
Cells were seeded into 24-well plates at a density of 1 × 10^5 cells/well and incubated for 48 h at 37 °C and 5% of CO2. When the confluence reached 90–95%, the medium was removed and the cells were exposed to inhibitors and substrates for 30 min at 37 °C. Then, the cell monolayer was washed with PBS at 37 °C, trypsinized and resuspended with 300 µL of cold PBS. The intracellular fluorescence was recorded by flow cytometry (FACS Calibur–Becton Dickinson, San Diego, CA, USA). At least 10,000 events were acquired. […] The inhibition percent was calculated as follows: % of inhibition = ((C − S))/((I − S)) × 100, where “C” represents the treatment with substrate + compound in test, “S” represents the treatment with substrate alone and “I” represents the treatment with substrate + reference inhibitor.
This study was approved by the Ethics Committee of SCS/UFPR (CAAE 51428521.2.0000.0102). Human blood (9 mL) was collected in tubes containing 8 mM of EGTA and centrifuged at 425× g for 10 min at room temperature. Human plasma (~4 mL) was separated in a new tube. In the tube containing blood cells (~5 mL), the same volume of RPMI (~5 mL) was added. The material was homogenized and centrifuged at 425× g for 10 min at room temperature. The supernatant was discarded, and the pellet of cells was centrifuged again at 425× g for 10 min, then, the supernatant was discarded, and the pellet was suspended in 5 mL of RPMI containing 2 mM of CaCl2. After 1 h of incubation at 37 °C, the material was centrifuged at 425× g for 10 min at 10 °C. Additionally, the tube containing the human plasma was also centrifuged at 425× g for 10 min at 10 °C. The supernatant from both tubes (human cells and plasma) was centrifuged at 4000 g for 10 min at 10 °C. The supernatant was separated and centrifuged at […] for 120 min at 10 °C. The supernatant was discarded and the pellet containing the vesicles was suspended in 60 µL of PBS. The protein concentration was quantified by Bradford assay. For each condition, 10 µL of the vesicles in PBS was diluted by adding 190 µL of PBS. […]

ABCG2 [10] = target: T1, ABCG2; test: Cell-based transport assay by confocal microscopy; set-up: expressed in transfected cells; host or cells: HEK293 (stably transfected, G418 selection; gift of Dr. Attilio Di Pietro); settings: 10 µM, hoechst 33342 2 µM
Description: Cells were seeded into 24-well plates at a density of 1 × 10^5 cells/well containing coverslips for microscopy and incubated for 48 h at 37 °C and 5% of CO2. Cells that adhered to the coverslips were treated with C4a and hoechst 33342 for 30 min at 37 °C. Then, the cell monolayer was washed with PBS at 37 °C and the coverslips removed from the plate and placed on slides for microscopy. The slides were then read in a confocal microscope Nikon A1R MP + (NIKON, Tokyo, Japan) using an oil-immersed 40× objective (with the numerical aperture of 1.15). A laser of 405 nm was used for excitation and the fluorescence emission was recorded using a bandpass filter of 425–475 nm. The software Nis Elements 4.20 (NIKON, Tokyo, Japan) was used for visualization of the images.

ABCG2 [11] = target: T1, ABCG2; test: 5D3 shift assay; type: cell-based; set-up: expressed in transfected cells; host or cells: HEK293 (stably transfected, G418 selection; gift of Dr. Attilio Di Pietro); settings: C4a 10 µM, Ko143 2 µM, HEK293-ABCG2
Description: HEK293-ABCG2 cells were seeded into 24-well plates at a density of 2 × 10^5 cells/well. When the confluence reached 90–95%, the medium was removed and the cells were exposed to inhibitors for 30 min at 37 °C. Then, the cell monolayer was washed with PBS at 37 °C, trypsinized and resuspended with 300 µL of PBS. Cells were centrifuged (1000× g for 3 min). The pellet was resuspended in 100 μL of PBS/BSA (40 μg/mL of BSA) and the primary antibody (mouse anti-human CD338 Clone 5D3, BD Pharmingen, San Diego, CA, USA) was added (1:100) for 30 min at 37 °C. Cells were centrifuged (1000× g, 3 min), the supernatant removed and the pellet resuspended with 100 μL of PBS containing the secondary antibody (goat anti-mouse conjugated with Phycoerythrin, BD Pharmingen, San Diego, CA, USA) at 1:200 for 30 min at 37 °C. Then, cells were centrifuged, the supernatant removed and the pellet was resuspended in 300 μL of PBS. The analysis was performed using a FACS Calibur (Becton Dickinson, San Diego, CA, USA).

HEK293 WT cells = test: MTT cell viability, HEK293 WT; type: cell-based, human; settings: SN38 10 nM, 72 h
Description: as §2

COc1ccc2c(=O)c3cccc(C(=O)NCc4ccc(OC)c(OC)c4)c3[nH]c2c1 [MBLI-87]
cytotoxicity [1]: low cytotoxicity
sensitization of xenografic tumors overexpressing ABCG2 to irinotecan [2]: successfully sensitized xenografic tumors overexpressing ABCG2 to irinotecan
IC50 (ABCG2 [3]): 0.45 µM

COc1ccc2[nH]cc(CCNC(=O)c3cc(=O)c4c(OCc5ccccc5Br)cccc4o3)c2c1 [C4a, chromone 4a]
inhibition of rhodamine 123 efflux mediated by P-gp (P-gp [4]): did not inhibit
inhibition of calcein efflux mediated by MRP1 (MRP1): did not inhibit
reversion of the resistance phenotype mediated by ABCG2, supernatant (HEK293-ABCG2 cells; supernatant containing C4a free at 0.1 to 10 µM + SN38 10 nM): complete reversion
solubility (Water solubility): low solubility
selectivity ratio at 20 min (ABCG2 versus P-gp): 67
EC50 (P-gp [5]): 4.3 µM
EC50 (ABCG2 [6]): 0.064 µM
effect on ATP-induced thermostabilization of P-gp (P-gp [7]): preventing thermostabilization
IT50, P-gp -ATP (P-gp [7]; absence of ATP): 50.02 ± 0.31 ºC
effect on thermal stability of ABCG2 (ABCG2 [8]): mild effect
IT50, ABCG2 -ATP (ABCG2 [8]; absence of ATP): 50.01 ± 0.26 ºC
IT50 (temperature that reduces 50% of the ATPase activity), ABCG2 +ATP (ABCG2 [8]; presence of ATP): 55.44 ± 0.25 ºC
inhibition of bodipy-prazosin efflux mediated by ABCG2 (ABCG2 [9]; 10 µM, bodipy-prazosin 0.2 µM): inhibited the efflux of all
inhibition of mitoxantrone efflux mediated by ABCG2 (ABCG2 [9]; 10 µM, mitoxantrone 10 µM, HEK293-ABCG2): completely inhibited; also recorded: inhibited the efflux of all
inhibition of pheophorbide-a efflux mediated by ABCG2 (ABCG2 [9]; 10 µM, pheophorbide a 10 µM): inhibited the efflux of all
inhibition of ABCG2 by supernatant (human EV preparation) (ABCG2 [9]; C4a free in supernatant, even at lower concentration tested 0.1 µM): strongly inhibited ABCG2
inhibition of hoechst 33342 efflux mediated by ABCG2 (confocal microscopy) (ABCG2 [10]): inhibited the efflux of all
binding of conformational antibody 5D3 (ABCG2 [11]): increased the binding of 5D3
IC50 (ABCG2 [3]): 0.086 µM

CCc1c2c(nc3ccc(O)cc13)-c1cc3c(c(=O)n1C2)COC(=O)[C@]3(O)CC [SN38, reference compound]
cytotoxic effect on wild-type HEK293 cells (HEK293 WT cells): highly cytotoxic
cell viability of cells overexpressing ABCG2 (HEK293-ABCG2 cells; SN38 10 nM, 72 h, MTT): mild decrease in the cell viability

COc1ccc2[nH]cc(CCNC(=O)c3cc(=O)c4c(OCc5ccc(Br)cc5)cccc4o3)c2c1 [MBL-II-141]
solubility (Water solubility): low solubility
growth of implanted ABCG2-positive tumors in mice ([2]; in combination with irinotecan): inhibiting the growth of implanted ABCG2-positive tumors
IC50 (ABCG2 [3]): 0.26 µM
